Assay results published in patent US20250312326A1, “PHARMACEUTICAL COMPOSITION OF ANTIPLATELET DRUG, AND USE THEREOF” (SHANGHAI CUREGENE PHARMACEUTICAL CO., LTD., priority 2022, published 2025).
Values belong to the compound of their own block, whether it stands above or below them.

Legend:
[1] = Pharmacokinetic in rats: thiol active metabolite in plasma; assay type: in vivo, Male Sprague-Dawley rats; conditions: rat plasma, oral, 10 mg/kg
Description: Male Sprague-Dawley rats were used to conduct pharmacokinetic experiment.
Test compounds (clopidogrel and exemplary compounds provided herein) was administrated orally or intravenously to rat under fast condition. Blood samples were collected via jugular vein at 5 min, 15 min, 30 min, 60 min and 120 min time points with EDTA-K2 (anticoagulant), 3′-methoxyphenacyl bromide (MPBr, derivatization reagent) and phenylmethylsulfonyl fluoride (PMSF, stabilizer). Plasma samples were then harvested by centrifuging at 1500 g for 10 min under 2˜8° C. and stored at −80° C. after separation. Plasma samples were loaded to a LC-MS/MS instrument after extraction to determine the concentration of the thiol active metabolite.

platelet aggregation = assay: Antiaggregatory action in rats (ex vivo ADP-induced platelet aggregation); set-up: species or system Male Sprague-Dawley rats; conditions: rat, oral
Description: Male Sprague-Dawley rats were used for ex vivo platelet aggregation experiments. […] The number of platelets in PRP was measured by hematology analyzer (Siemens, ADVIA2120), and adjusted to 4×10^8/mL with PPP. Platelet aggregation was determined using turbidimetric aggregometry method by an automatic platelet aggregometer ([…]). The aggregometer was primarily warmed up to 37° C., and PRP (290 μL) sample was added to the cuvette and set in the automatic platelet aggregometer. […] Antiaggregatory action of test compounds was expressed as inhibition (%) which determined by the relation: […]

[2] = human body; cited from earlier work
[3] = loading dose 300-600 mg; cited from earlier work

peak concentration of the thiol active metabolite compared with clopidogrel [1]: significantly higher
SMILES: COC(=O)[C@H](c1ccccc1Cl)N1CCC(SCOC(=O)OC(C)C)/C(=C/C(=O)O)C1 (stereo partly shown) [Compound 1a]

peak concentration of the thiol active metabolite compared with clopidogrel [1]: significantly higher
SMILES: COC(=O)[C@H](c1ccccc1Cl)N1CCC(SCOC(=O)OC(C)C)/C(=C\C(=O)O)C1 (stereo partly shown) [Compound 1b]
inhibition at 2 mg/kg (platelet aggregation; Platelet, 2 mg/kg, ADP 10 μM, read-out: maximum inhibition of platelet aggregation): ~45% | time to maximum inhibition of platelet aggregation (platelet aggregation; 2 mg/kg): 60 min

SMILES: COC(=O)[C@H](c1ccccc1Cl)N1CCc2sccc2C1 [clopidogrel, Clopidogrel]
inhibition at 10 mg/kg (platelet aggregation; Platelet, 10 mg/kg, ADP 10 μM, read-out: maximum inhibition of platelet aggregation): ~45% | time to maximum inhibition of platelet aggregation (platelet aggregation; 10 mg/kg): about 120 minutes | fraction producing inactive metabolites through non-oxidative hydrolysis [2]: about 85% | fraction undergoing two-step oxidation (cytochrome P450, mainly CYP2C19) to active metabolite H4 [2]: about 15% | onset of therapeutic effect after loading dose administration [3]: 2 h

peak concentration of the thiol active metabolite compared with clopidogrel [1]: significantly higher
SMILES: CCOC(=O)/C=C1\CN([C@H](C(=O)OC)c2ccccc2Cl)CCC1SCOC(=O)OC(C)C (stereo partly shown) [Compound 2a]
